Each cell line was assayed with COc1cc(Nc2ncc(F)c(Nc3ccc4c(n3)NC(=O)C(C)(C)O4)n2)cc(OC)c1OC [R406] + CS(=O)(=O)CCNCc1ccc(-c2ccc3ncnc(Nc4ccc(OCc5cccc(F)c5)c(Cl)c4)c3c2)o1 [Lapatinib] (partner 2 µM) (assay: relative viability (nuclei count vs DMSO), 5 days (fraction); higher = more cells survive). Conditions: first compound 8 µM.
Summary of the method: (§1)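 For relative viability, nuclei counts in treated wells were divided by those in vehicle wells. Lung cancer cell lines had been pin-tool dosed in 1536-well plates the day after seeding and cultured for 5 days, then fixed and stained in one step (final 0.05% Triton X-100, 1% formaldehyde, 1 ug/ml Hoechst) and imaged at 4×. Doses were one drug alone or a fixed anchor-drug dose plus five library-drug doses (not always all listed) in √10 steps, and values are duplicate-plate medians.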

| Cell Line | relative viability |
| --- | --- |
| SK-MES-1 | 0.295 |
| LU99A | 0.482 |
| BEN | 0.602 |
| NCI-H1395 | 0.491 |
| NCI-H1299 | 0.721 |

Each cell line was assayed with COc1cc(Nc2ncc(F)c(Nc3ccc4c(n3)NC(=O)C(C)(C)O4)n2)cc(OC)c1OC [R406] + C[C@@H](Oc1cc(-c2cnn(C3CCNCC3)c2)cnc1N)c1c(Cl)ccc(F)c1Cl [Crizotinib] (partner 1 µM) in the same assay as above. Conditions: first compound 0.08 µM.
Summary of the method: as §1

| Cell Line | relative viability |
| --- | --- |
| NCI-H838 | 0.806 |
| NCI-H1650 | 1.05 |
| EBC-1 | 0.155 |
| NCI-H1703 | 0.623 |
| NCI-H1993 | 0.933 |
| NCI-H441 | 0.72 |
| PC-14 | 0.92 |
| LCLC-103H | 1.07 |
| NCI-H596 | 0.837 |
| NCI-H2126 | 0.965 |
| EMC-BAC-2 | 0.747 |
| NCI-H2085 | 0.841 |
| Calu-6 | 0.697 |
| HCC-366 | 0.581 |
| NCI-H1666 | 0.92 |
| NCI-H647 | 0.987 |
| LK-2 | 0.275 |

| Cell Line | relative viability |
| --- | --- |
| NCI-H2087 | 0.825 |
| NCI-H358 | 0.639 |
| NCI-H2170 | 1.16 |
| H3255 | 0.82 |
| COR-L23 | 0.612 |
| COR-L 105 | 0.955 |
| IA-LM | 0.972 |
| LOU-NH91 | 0.745 |
| ChaGo-K-1 | 1.1 |
| NCI-H2405 | 0.769 |
| HOP-62 | 1.12 |
| HCC-44 | 0.771 |
| A549 | 0.785 |
| SK-MES-1 | 0.992 |
| LU99A | 0.474 |
| BEN | 0.923 |
| NCI-H1299 | 0.941 |

Same assay, conditions: first compound 0.253 µM

| Cell Line | relative viability |
| --- | --- |
| NCI-H838 | 0.945 |
| NCI-H1650 | 1.09 |
| EBC-1 | 0.231 |
| NCI-H1993 | 0.866 |
| NCI-H441 | 0.975 |
| PC-14 | 1.06 |
| LCLC-103H | 1.24 |
| NCI-H596 | 1.1 |
| NCI-H2126 | 1.11 |
| EMC-BAC-2 | 0.855 |
| NCI-H2085 | 0.974 |
| Calu-6 | 0.954 |
| HCC-366 | 0.794 |
| NCI-H1666 | 1.3 |
| NCI-H647 | 1.35 |
| LK-2 | 0.224 |
| NCI-H2087 | 1.26 |

| Cell Line | relative viability |
| --- | --- |
| NCI-H358 | 0.587 |
| NCI-H2170 | 1.25 |
| H3255 | 1.13 |
| COR-L23 | 0.797 |
| COR-L 105 | 0.89 |
| IA-LM | 1.21 |
| LOU-NH91 | 0.728 |
| ChaGo-K-1 | 0.936 |
| NCI-H2405 | 0.989 |
| HOP-62 | 1.21 |
| HCC-44 | 0.963 |
| A549 | 0.837 |
| SK-MES-1 | 1.04 |
| LU99A | 0.553 |
| BEN | 1.32 |
| NCI-H1299 | 0.946 |

Same assay, conditions: first compound 0.8 µM

| Cell Line | relative viability |
| --- | --- |
| NCI-H838 | 0.949 |
| NCI-H1650 | 0.961 |
| EBC-1 | 0.153 |
| NCI-H1703 | 0.662 |
| NCI-H1993 | 0.809 |
| NCI-H441 | 0.846 |
| PC-14 | 0.862 |
| LCLC-103H | 0.954 |
| NCI-H596 | 1.09 |
| NCI-H2126 | 1.01 |
| EMC-BAC-2 | 0.796 |
| NCI-H2085 | 0.785 |
| Calu-6 | 0.909 |
| HCC-366 | 0.81 |
| NCI-H1666 | 0.973 |
| NCI-H647 | 1.26 |
| LK-2 | 0.178 |

| Cell Line | relative viability |
| --- | --- |
| NCI-H2087 | 0.899 |
| NCI-H358 | 0.498 |
| NCI-H2170 | 1.15 |
| H3255 | 0.873 |
| COR-L23 | 0.733 |
| COR-L 105 | 0.822 |
| IA-LM | 1.01 |
| LOU-NH91 | 0.756 |
| ChaGo-K-1 | 1.23 |
| NCI-H2405 | 0.861 |
| HOP-62 | 0.844 |
| HCC-44 | 0.806 |
| A549 | 0.941 |
| SK-MES-1 | 0.959 |
| LU99A | 0.607 |
| BEN | 1.15 |
| NCI-H1299 | 0.977 |

Same assay, conditions: first compound 2.53 µM

| Cell Line | relative viability |
| --- | --- |
| NCI-H838 | 0.612 |
| NCI-H1650 | 0.327 |
| EBC-1 | 0.209 |
| NCI-H1703 | 0.199 |
| NCI-H1993 | 0.75 |
| NCI-H441 | 0.599 |
| PC-14 | 0.79 |
| LCLC-103H | 0.971 |
| NCI-H596 | 0.796 |
| NCI-H2126 | 1.02 |
| EMC-BAC-2 | 0.738 |
| NCI-H2085 | 0.887 |
| Calu-6 | 0.494 |
| NCI-H1666 | 0.849 |
| NCI-H647 | 0.573 |
| LK-2 | 0.255 |

| Cell Line | relative viability |
| --- | --- |
| NCI-H2087 | 0.983 |
| NCI-H358 | 0.434 |
| NCI-H2170 | 0.815 |
| H3255 | 0.761 |
| COR-L23 | 0.708 |
| COR-L 105 | 0.8 |
| IA-LM | 1.11 |
| LOU-NH91 | 0.504 |
| ChaGo-K-1 | 1.01 |
| NCI-H2405 | 0.78 |
| HOP-62 | 1.1 |
| HCC-44 | 0.721 |
| A549 | 0.337 |
| SK-MES-1 | 0.73 |
| BEN | 0.785 |
| NCI-H1299 | 1.03 |

Same assay, conditions: first compound 8 µM

| Cell Line | relative viability |
| --- | --- |
| NCI-H838 | 0.516 |
| NCI-H1650 | 0.139 |
| EBC-1 | 0.166 |
| NCI-H1703 | 0.129 |
| NCI-H1993 | 0.661 |
| NCI-H441 | 0.461 |
| PC-14 | 0.687 |
| LCLC-103H | 0.828 |
| NCI-H596 | 0.245 |
| NCI-H2126 | 0.995 |
| EMC-BAC-2 | 0.262 |
| NCI-H2085 | 0.566 |
| Calu-6 | 0.36 |
| HCC-366 | 0.294 |
| NCI-H1666 | 0.461 |
| NCI-H647 | 0.0968 |
| LK-2 | 0.259 |
| NCI-H2087 | 0.936 |
| NCI-H358 | 0.221 |
| NCI-H2170 | 0.495 |

From the supplement of paper PMC10307832
